In patent publication US20110105515A1, “TARGETING THE ONCOPROTEIN NUCLEOPHOSMIN” (President and Fellows of Harvard College, priority 2007, published 2011):
Where two headings read alike, the source gives them in different places.

Assays:
T-47D = assay: cells; settings: Homo sapiens, T47D, 48 h
M14 = assay: cells; settings: Homo sapiens, M14, 48 h; for CC50: read-out: LC50
UACC-257 = assay: cells; settings: Homo sapiens, UACC-257, 48 h; for CC50: read-out: LC50
NCI-H23 = assay: cells; settings: Homo sapiens, NCI-H23, 48 h; for CC50: read-out: LC50
NCI-H522 = assay: cells; settings: Homo sapiens, NCI-H522, 48 h; for CC50: read-out: LC50
SN12C = assay: cells; settings: Homo sapiens, 48 h; for CC50: read-out: LC50
U251 = assay: cells; settings: Homo sapiens, U-251, 48 h; for CC50: read-out: LC50
SK-OV-3 = assay: cells; settings: Homo sapiens, SK-OV-3, 48 h; for CC50: read-out: LC50
A549/ATCC = assay: cells; settings: Homo sapiens, A549, 48 h; for CC50: read-out: LC50
EKVX = assay: cells; settings: Homo sapiens, 48 h; for CC50: read-out: LC50
HT29 = assay: cells; settings: Homo sapiens, HT-29, 48 h; for CC50: read-out: LC50
SF-268 = assay: cells; settings: Homo sapiens, SF-268, 48 h; for CC50: read-out: LC50
HOP-62 = assay: cells; settings: Homo sapiens, HOP-62, 48 h; for CC50: read-out: LC50
OVCAR-8 = assay: cells; settings: Homo sapiens, OVCAR-8, 48 h; for CC50: read-out: LC50
MDA-MB-231/ATCC = assay: cells; settings: Homo sapiens, MDA-MB-231, 48 h; for CC50: read-out: LC50
RPMI-8226 = assay: cells; settings: Homo sapiens, RPMI-8226, 48 h
NCI-H460 = assay: cells; settings: Homo sapiens, NCI-H460, 48 h
UO-31 = assay: cells; settings: Homo sapiens, UO-31, 48 h; for CC50: read-out: LC50
TK-10 = assay: cells; settings: Homo sapiens, TK-10, 48 h; for CC50: read-out: LC50
SR = assay: cells; settings: Homo sapiens, 48 h
OVCAR-5 = assay: cells; settings: Homo sapiens, OVCAR-5, 48 h; for CC50: read-out: LC50
HL-60(TB) = assay: cells; settings: Homo sapiens, HL-60, 48 h; for CC50: read-out: LC50
HCC-2998 = assay: cells; settings: Homo sapiens, HCC 2998, 48 h; for CC50: read-out: LC50
HCT-15 = assay: cells; settings: Homo sapiens, HCT-15, 48 h; for CC50: read-out: LC50
UACC62 = assay: cells; settings: Homo sapiens, UACC-62, 48 h; for CC50: read-out: LC50
OVCAR-3 = assay: cells; settings: Homo sapiens, OVCAR-3, 48 h; for CC50: read-out: LC50
MCF7 = assay: cells; settings: Homo sapiens, MCF7, 48 h; for CC50: read-out: LC50
LOX IMVI = assay: cells; settings: Homo sapiens, 48 h; for CC50: read-out: LC50
SW-620 = assay: cells; settings: Homo sapiens, SW-620, 48 h; for CC50: read-out: LC50
SNB-75 = assay: cells; settings: Homo sapiens, SNB-75, 48 h; for CC50: read-out: LC50
OVCAR-4 = assay: cells; settings: Homo sapiens, OVCAR-4, 48 h
KM12 = assay: cells; settings: Homo sapiens, KM12, 48 h; for CC50: read-out: LC50
786-0 = assay: cells; settings: Homo sapiens, 786-0, 48 h; for CC50: read-out: LC50
SF-539 = assay: cells; settings: Homo sapiens, SF-539, 48 h; for CC50: read-out: LC50
HOP-92 = assay: NCI 60 cell lines, SRB assay: HOP-92; settings: for CC50: read-out: LC50
[1] = HOP-92 (Non-Small Cell Lung Cancer), 48 hours, SRB

With `Cc1cc(C)cc(-c2ccc3c(c2)[N+]([O-])=C2C3=C[C@@]34NC(=O)C5(CCCN5C3=O)CC4C2(C)C)c1` (stereo partly shown) [Biphenyl Analogue] the GI50 (T-47D) was 0.0576 µM, the GI50 (M14) was 0.205 µM and the CC50 (M14) was 2.18 µM. It also gave a GI50 (UACC-257) of 0.272 µM, a CC50 (UACC-257) of 3.74 µM and a GI50 (NCI-H23) of 0.206 µM. It also gave a CC50 (NCI-H23) of 3.58 µM, a GI50 (NCI-H522) of 0.0662 µM and a CC50 (NCI-H522) of 1.16 µM. For the same molecule, the GI50 (SN12C) was 0.214 µM, the CC50 (SN12C) was 2.52 µM and the GI50 (U251) was 0.136 µM. For the same molecule, the CC50 (U251) was 0.547 µM, the GI50 (SK-OV-3) was 0.3 µM and the CC50 (SK-OV-3) was 3.45 µM. For the same molecule, the GI50 (A549/ATCC) was 0.279 µM, the CC50 (A549/ATCC) was 3 µM and the GI50 (EKVX) was 0.296 µM. For the same molecule, the CC50 (EKVX) was 3.47 µM, the GI50 (HT29) was 0.284 µM and the CC50 (HT29) was over 100 µM. The GI50 (SF-268) was 0.236 µM, the CC50 (SF-268) was 3.32 µM and the GI50 (HOP-62) was 1.64 µM. The CC50 (HOP-62) was 6.74 µM, the GI50 (OVCAR-8) was 0.277 µM and the CC50 (OVCAR-8) was 3.3 µM. For the same molecule, the GI50 (MDA-MB-231/ATCC) was 0.24 µM, the CC50 (MDA-MB-231/ATCC) was 3.76 µM and the GI50 (RPMI-8226) was 0.0102 µM. The GI50 (NCI-H460) was 0.326 µM, the GI50 (UO-31) was 0.19 µM and the CC50 (UO-31) was 2.76 µM. It also gave a GI50 (TK-10) of 0.263 µM, a CC50 (TK-10) of 3.38 µM and a GI50 (SR) of 0.118 µM. For the same molecule, the GI50 (OVCAR-5) was 0.368 µM, the CC50 (OVCAR-5) was 4.21 µM and the GI50 (HL-60(TB)) was 0.131 µM. It also gave a CC50 (HL-60(TB)) of 64.3 µM, a GI50 (HCC-2998) of 0.269 µM and a CC50 (HCC-2998) of 3.5 µM. It also gave a GI50 (HCT-15) of 0.146 µM, a CC50 (HCT-15) of 0.71 µM and a GI50 (UACC62) of 0.161 µM. It also gave a CC50 (UACC62) of 1.85 µM, a GI50 (OVCAR-3) of 0.158 µM and a CC50 (OVCAR-3) of 0.986 µM. The GI50 (MCF7) was 0.212 µM, the CC50 (MCF7) was 5.51 µM and the GI50 (LOX IMVI) was 0.139 µM. The CC50 (LOX IMVI) was 0.534 µM, the GI50 (SW-620) was 0.151 µM and the CC50 (SW-620) was 0.806 µM. For the same molecule, the GI50 (SNB-75) was 0.242 µM, the CC50 (SNB-75) was 3.86 µM and the GI50 (OVCAR-4) was 0.237 µM. For the same molecule, the GI50 (KM12) was 0.257 µM, the CC50 (KM12) was 3.91 µM and the GI50 (786-0) was 0.192 µM. For the same molecule, the CC50 (786-0) was 0.825 µM, the GI50 (SF-539) was 0.186 µM and the CC50 (SF-539) was 1.17 µM.
Molecule `CN(C)c1cccc2c(S(=O)(=O)NCCCCCCCCCCOc3ccc4c(c3)[N+]([O-])=C3C4=C[C@@]45NC(=O)C6(CCCN6C4=O)CC5C3(C)C)cccc12` (stereo partly shown) [Dansyl Analogue] has a GI50 (HOP-92; [1]) of 0.224 µM, a TGI (HOP-92; [1]) of 0.867 µM and a CC50 (HOP-92; [1]) of 12.7 µM.
`[2H]On1c2c(c3ccc4c(c31)C=CC(C)(C)O4)C(OC([2H])([2H])[2H])[C@@]13NC(=O)C4(CCCN4C1=O)CC3C2(C)C` (stereo partly shown) [Deuterated Methanol Adduct] gave a GI50 (T-47D) of 0.142 µM, a GI50 (M14) of 1.06 µM and a CC50 (M14) of 5.9 µM. It also gave a TGI (HOP-92; [1]) of 1.3 µM, a GI50 (HOP-92; Homo sapiens, HOP-92, 48 h) of 0.222 µM and a CC50 (HOP-92; Homo sapiens, HOP-92, 48 h) of 4.62 µM. For the same molecule, the GI50 (UACC-257) was 0.587 µM, the CC50 (UACC-257) was 4.45 µM and the GI50 (NCI-H23) was 0.995 µM. It also gave a CC50 (NCI-H23) of 5.9 µM, a GI50 (NCI-H522) of 0.431 µM and a CC50 (NCI-H522) of 4.82 µM. For the same molecule, the GI50 (SN12C) was 1.12 µM, the CC50 (SN12C) was 4.82 µM and the GI50 (U251) was 0.382 µM. The CC50 (U251) was 3.7 µM, the GI50 (SK-OV-3) was 1.01 µM and the CC50 (SK-OV-3) was 4.65 µM. It also gave a GI50 (A549/ATCC) of 1.56 µM, a CC50 (A549/ATCC) of 5.73 µM and a GI50 (EKVX) of 0.594 µM. The CC50 (EKVX) was 4.64 µM, the GI50 (HT29) was 1.26 µM and the CC50 (HT29) was 68.1 µM. For the same molecule, the GI50 (SF-268) was 1.5 µM, the CC50 (SF-268) was 6.06 µM and the GI50 (HOP-62) was 2.39 µM. For the same molecule, the CC50 (HOP-62) was 26.7 µM, the GI50 (OVCAR-8) was 0.96 µM and the CC50 (OVCAR-8) was 4.77 µM. For the same molecule, the GI50 (MDA-MB-231/ATCC) was 0.538 µM, the CC50 (MDA-MB-231/ATCC) was 4.32 µM and the GI50 (RPMI-8226) was 0.0402 µM. It also gave a CC50 (RPMI-8226; read-out: LC50) of 3.3 µM, a GI50 (NCI-H460) of 1.8 µM and a CC50 (NCI-H460; read-out: LC50) of 7.17 µM. It also gave a GI50 (UO-31) of 0.498 µM, a CC50 (UO-31) of 4.29 µM and a GI50 (TK-10) of 1.07 µM. For the same molecule, the CC50 (TK-10) was 5.15 µM, the GI50 (SR) was 0.235 µM and the CC50 (SR; read-out: LC50) was 9.37 µM. The GI50 (OVCAR-5) was 0.586 µM, the CC50 (OVCAR-5) was 4.49 µM and the GI50 (HL-60(TB)) was 0.298 µM. The CC50 (HL-60(TB)) was 9.37 µM, the GI50 (HCC-2998) was 0.692 µM and the CC50 (HCC-2998) was 4.71 µM. For the same molecule, the GI50 (HCT-15) was 0.548 µM, the CC50 (HCT-15) was 4.23 µM and the GI50 (UACC62) was 0.549 µM. It also gave a CC50 (UACC62) of 4.39 µM, a GI50 (OVCAR-3) of 0.616 µM and a CC50 (OVCAR-3) of 4.27 µM. For the same molecule, the GI50 (MCF7) was 0.348 µM, the CC50 (MCF7) was 4.56 µM and the GI50 (LOX IMVI) was 0.969 µM. The CC50 (LOX IMVI) was 4.63 µM, the GI50 (SW-620) was 0.375 µM and the CC50 (SW-620) was 4.9 µM. For the same molecule, the GI50 (SNB-75) was 0.265 µM, the CC50 (SNB-75) was 4.72 µM and the GI50 (OVCAR-4) was 0.373 µM. It also gave a CC50 (OVCAR-4; read-out: LC50) of 4.14 µM, a GI50 (KM12) of 1.27 µM and a CC50 (KM12) of 5.02 µM. The GI50 (786-0) was 1.2 µM, the CC50 (786-0) was 5.02 µM and the GI50 (SF-539) was 0.431 µM. For the same molecule, the CC50 (SF-539) was 3.83 µM.
